Tests used:
[1] = tested on: SK-BR-3; details: 72 h
How it was run: (§1)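 For viability and cell death testing, 384-well plates carried compound at 5 concentrations in 10-fold steps over a compound-specific 10,000-fold range, and breast cancer cell lines were seeded in 20 µl suspension. After 72 h incubation, cell death was read by CellTox Green fluorescence (485/520 nm) before viability was read by CellTiter-Glo luminescence. EC50 was fitted from the dose-response curves and censored at the top concentration. Normalisation on each plate was to 0.1 % DMSO and a positive kill control.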

[2] = tested on: MFM-223; details: 72 h
How it was run: as §1

[3] = tested on: BT-549; details: 72 h
How it was run: as §1

[4] = tested on: MDA-MB-453; details: 72 h
How it was run: as §1

[5] = tested on: MCF-10A; details: 72 h
How it was run: as §1

[6] = tested on: BT-474; details: 72 h
How it was run: as §1

[7] = tested on: CAL-120; details: 72 h
How it was run: as §1

[8] = tested on: MDA-MB-468; details: 72 h
How it was run: as §1

[9] = tested on: CAL-148; details: 72 h
How it was run: as §1

[10] = tested on: DU-4475; details: 72 h
How it was run: as §1

[11] = tested on: MDA-MB-436; details: 72 h
How it was run: as §1

[12] = tested on: CAL-51; details: 72 h
How it was run: as §1

[13] = tested on: CAL-51; details: 72 h; remark: listed apart in the source
Protocol: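 Drug sensitivity and resistance testing (DSRT) of breast cancer cell lines in 384-well plates, 5 concentrations in 10-fold dilutions over a compound-specific 10,000-fold range. After 72 h, cytotoxicity was read by CellTox Green fluorescence and viability by CellTiter-Glo luminescence (multiplexed), normalised to DMSO and benzethonium chloride controls. EC50 is the inflection point of the fitted dose-response curve (bottom asymptote free, so it can be relative for partial curves) and is censored at the highest tested concentration. Rows with DSS 0 (no meaningful response) were excluded.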

[14] = tested on: Hs578T; details: 72 h
How it was run: as §1

[15] = tested on: CAL-148; assay: normalised response (% of control), CellTiter-Glo; higher = more viable cells (100 = DMSO, 0 = benzethonium chloride kill control); details: incubation time: 72 h
How it was run: (§2)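 Breast cancer cell lines were exposed for 72 h in 384-well plates to compound at 5 concentrations, 10-fold apart, covering a 10,000-fold range fixed for each compound. Plates were read for CellTox Green fluorescence and CellTiter-Glo luminescence and normalised to 0.1 % DMSO (100) and a positive kill control (0). Each value is the normalised signal at one concentration of the series.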

[16] = tested on: SK-BR-3; assay: as above; details: incubation time: 72 h
How it was run: as §2

[17] = tested on: MFM-223; assay: as above; details: incubation time: 72 h
How it was run: as §2

[18] = tested on: BT-549; assay: as above; details: incubation time: 72 h
How it was run: as §2

[19] = tested on: Hs578T; assay: as above; details: incubation time: 72 h
How it was run: as §2

[20] = tested on: MDA-MB-231; assay: as above; details: incubation time: 72 h
How it was run: as §2

[21] = tested on: DU-4475; assay: as above; details: incubation time: 72 h
How it was run: as §2

[22] = tested on: MDA-MB-436; assay: as above; details: incubation time: 72 h
How it was run: as §2

[23] = tested on: MDA-MB-453; assay: as above; details: incubation time: 72 h
How it was run: as §2

[24] = tested on: MCF-10A; assay: as above; details: incubation time: 72 h
How it was run: as §2

[25] = tested on: BT-474; assay: as above; details: incubation time: 72 h
How it was run: as §2

[26] = tested on: HCC1937; assay: as above; details: incubation time: 72 h
How it was run: as §2

[27] = tested on: HCC1599; assay: as above; details: incubation time: 72 h
How it was run: as §2

[28] = tested on: CAL-120; assay: as above; details: incubation time: 72 h
How it was run: as §2

[29] = tested on: HDQ-P1; assay: as above; details: incubation time: 72 h
How it was run: as §2

[30] = tested on: CAL-51; assay: as above; details: incubation time: 72 h
How it was run: as §2

[31] = tested on: MDA-MB-468; assay: as above; details: incubation time: 72 h
How it was run: as §2

[32] = tested on: CAL-85-1; assay: as above; details: incubation time: 72 h
How it was run: as §2

[33] = tested on: HCC1143; assay: as above; details: incubation time: 72 h
How it was run: as §2

[34] = tested on: HCC1937; details: 72 h
How it was run: as §1

SMILES	normalised response [15] [%]	normalised response [16] [%]	normalised response [17] [%]	normalised response [18] [%]	normalised response [19] [%]	normalised response [20] [%]	normalised response [21] [%]	normalised response [22] [%]	normalised response [23] [%]	normalised response [24] [%]	normalised response [25] [%]	normalised response [26] [%]	normalised response [27] [%]	normalised response [28] [%]	normalised response [29] [%]	normalised response [30] [%]	normalised response [31] [%]	normalised response [32] [%]	normalised response [33] [%]	other results
CC(C)(C)Cn1c(N)nc2ccc(-c3[nH]c(C(C)(C)C)nc3-c3ccc(F)cc3)nc21																				EC50, CellTiter-Glo [1]: 3050 nM; EC50, CellTiter-Glo [2]: 3110 nM; EC50, CellTiter-Glo [3]: 3340 nM; EC50, CellTiter-Glo [4]: 1910 nM; EC50, CellTiter-Glo [5]: 4590 nM; EC50, CellTiter-Glo [6]: > 10000 nM; EC50, CellTiter-Glo [7]: > 10000 nM; EC50, CellTiter-Glo [8]: 6760 nM
NC(=O)c1cccc2cn(-c3ccc([C@@H]4CCCNC4)cc3)nc12 [MK-4827]																				EC50, CellTiter-Glo [9]: 2630 nM; EC50, CellTiter-Glo [10]: 1090 nM; EC50, CellTiter-Glo [11]: 601 nM; EC50, CellTiter-Glo [8]: 9350 nM
Cc1c(C(=O)Nc2ccc(N3C[C@@H](C)O[C@@H](C)C3)nc2)cccc1-c1ccc(OC(F)(F)F)cc1 [Erismodegib]																				EC50, CellTiter-Glo [11]: 636 nM; EC50, CellTiter-Glo [6]: 722 nM; EC50, CellTiter-Glo [12]: 41 nM; EC50, CellTiter-Glo [8]: 6610 nM
NC(=O)NO [Hydroxyurea]																				EC50, CellTiter-Glo [3]: 14000 nM; EC50, CellTiter-Glo [12]: 1290 nM; EC50, CellTox Green [13]: 16300 nM
NC1(c2ccc(-c3nc4ccn5c(=O)[nH]nc5c4cc3-c3ccccc3)cc2)CCC1 [MK-2206]																				EC50, CellTiter-Glo [9]: 279 nM; EC50, CellTiter-Glo [1]: 280 nM; EC50, CellTiter-Glo [2]: 436 nM; EC50, CellTiter-Glo [3]: 137 nM; EC50, CellTiter-Glo [14]: > 1000 nM; EC50, CellTiter-Glo [10]: > 1000 nM; EC50, CellTiter-Glo [4]: 472 nM
CCN(CC)CCOc1ccc(C(=C(Cl)c2ccccc2)c2ccccc2)cc1 [Clomifene] (10000 nM)	74.4	27.5	26.5	71.3	26.6	4.7	44.1	87.6	14.7	46.1	8.15	10.1	4.3	90.2	82.1	98.5	65	44.9	95.4	
C[C@@H]1C[C@H]2[C@@H]3CCC4=CC(=O)C=C[C@]4(C)[C@@]3(F)[C@@H](O)C[C@]2(C)[C@@]1(O)C(=O)CO [Dexamethasone]																				EC50, CellTiter-Glo [4]: 379 nM; EC50, CellTiter-Glo [7]: 7.49 nM
CO[C@H](C(=O)[C@@H](O)[C@@H](C)O)[C@@H]1Cc2cc3cc(O[C@H]4C[C@@H](O[C@@H]5C[C@@H](O)[C@H](O)[C@@H](C)O5)[C@H](O)[C@@H](C)O4)c(C)c(O)c3c(O)c2C(=O)[C@H]1O[C@H]1C[C@@H](O[C@@H]2C[C@@H](O)[C@@H](O[C@@H]3C[C@](C)(O)[C@H](O)[C@@H](C)O3)[C@@H](C)O2)[C@H](O)[C@@H](C)O1 [Plicamycin] (10000 nM)	6.34	10.1	29.1	1.99	8.19	7.32	1.22	22.5	16.1	5.35	9.55	21	4.89	27	19.1	9.56	4.44	9.87	6.57	
C[C@@H]1C[C@H]2[C@@H]3CCC4=CC(=O)C=C[C@]4(C)[C@@]3(F)[C@@H](O)C[C@]2(C)[C@@]1(O)C(=O)CO [Dexamethasone] (10000 nM)	98.2	86.9	94.2	96.7	105	149	101	103	78.7	79.9	137	98.4	83.5	70.3	82	132	95.2	124	99.6	
NC(=O)NO [Hydroxyurea] (100000 nM)	102	110	104	77.4	104	98.5	102	103	106	105	97.2	95	96.4	96.9	97	29	102	101	104	
Cc1cc2c(F)c(Oc3ncnn4cc(OC[C@@H](C)O)c(C)c34)ccc2[nH]1 [Brivanib]																				EC50, CellTiter-Glo [12]: 176 nM
CCCCCOC(=O)Nc1nc(=O)n([C@@H]2O[C@H](C)[C@@H](O)[C@H]2O)cc1F [Capecitabine]																				EC50, CellTiter-Glo [11]: 5970 nM
Cn1nnc2c(C(N)=O)ncn2c1=O [Temozolomide] (10000 nM)	95.8	93.9	101	100	95.7	91.2	91.1	98	97.9	96.2	91.2	91.6	108	95.2	95.1	106	99.1	99.2	95.1	
CC(C)C(=O)Nc1ccc([N+](=O)[O-])c(C(F)(F)F)c1 [Flutamide]																				EC50, CellTiter-Glo [12]: > 10000 nM
C[C@]12C=CC(=O)C=C1CC[C@@H]1[C@@H]2C(=O)C[C@@]2(C)[C@H]1CC[C@]2(O)C(=O)CO [Prednisone]																				EC50, CellTiter-Glo [7]: 8390 nM
O=C(c1cc(Cc2n[nH]c(=O)c3ccccc23)ccc1F)N1CCN(C(=O)C2CC2)CC1 [Olaparib]																				EC50, CellTiter-Glo [9]: 1200 nM; EC50, CellTiter-Glo [3]: 4140 nM; EC50, CellTiter-Glo [11]: 1040 nM; EC50, CellTiter-Glo [7]: > 10000 nM; EC50, CellTiter-Glo [12]: 45.4 nM; EC50, CellTiter-Glo [8]: 1510 nM; EC50, CellTox Green [13]: 8300 nM
C[C@]12C=CC(=O)C=C1CC[C@@H]1[C@@H]2C(=O)C[C@@]2(C)[C@H]1CC[C@]2(O)C(=O)CO [Prednisone] (10000 nM)	109	107	97.4	94.6	102	100	107	98.2	100	113	105	95.4	102	49	98.6	118	104	98.6	103	
CC[C@@H]1C(=O)N(C)c2cnc(Nc3ccc(C(=O)N[C@H]4CC[C@H](N5CCN(CC6CC6)CC5)CC4)cc3OC)nc2N1C(C)C [Volasertib] (1000 nM)	79.9	27.2	51.2	29.1	25.4	73	66.2	65.6	62.4	46.9	66.4	66.8	28.3	49.1	64.7	26.9	48	48.6	41.3	
CN1CCN(c2nc(C3=C(c4c[nH]c5ccccc45)C(=O)NC3=O)c3ccccc3n2)CC1 [Sotrastaurin] (10000 nM)	84.3	67.5	67.4	97.9	108	107	76.4	107	108	94.2	103	118	82.8	82.7	86.2	92.5	78.6	112	94.2	
COc1cc2c(Oc3ccc(NC(=O)C4(C(=O)Nc5ccc(F)cc5)CC4)cc3F)ccnc2cc1OCCCN1CCOCC1 [Foretinib] (1000 nM)	48.9	98	44.6	75.5	76	60.2	80.8	73.3	125	60.7	73	72.5	104	68	66.1	67.3	34.1	90.3	69.2	
CC/C(=C(\c1ccccc1)c1ccc(OCCN(C)C)cc1)c1ccccc1 [Tamoxifen]																				EC50, CellTiter-Glo [1]: > 10000 nM; EC50, CellTiter-Glo [2]: 3370 nM; EC50, CellTiter-Glo [4]: 2560 nM; EC50, CellTiter-Glo [34]: > 10000 nM; EC50, CellTiter-Glo [7]: > 10000 nM; EC50, CellTiter-Glo [12]: 233 nM
Cc1c(N)nc([C@H](CC(N)=O)NC[C@H](N)C(N)=O)nc1C(=O)N[C@H](C(=O)N[C@H](C)[C@@H](O)[C@H](C)C(=O)N[C@H](C(=O)NCCc1nc(-c2nc(C(=O)NCCC[S+](C)C)cs2)cs1)[C@@H](C)O)[C@@H](OC1OC(CO)C(O)C(O)C1OC1OC(CO)C(O)C(OC(N)=O)C1O)c1cnc[nH]1 (stereo not given in full) [Bleomycin] (10000 nM)	63.3	67.4	108	32.6	69.6	74.8	78.9	39.1	124	53	65.3	45.8	88.7	80.9	78.5	37.9	48.8	64.3	48.5	
